Test [1] has as its system L6 GLUT4myc myotubes. The test can be described thus: 3H-Deoxyglucose uptake assay. The test is classed as cell-based, rat. Conditions: 50 μM, 18 h; for 2-deoxyglucose uptake rate: basal (DMSO) 10.1 ± 0.5. How it is done:
Measurement of glucose uptake was performed as previously described (Eid et al. [2010]) using [^3H]-2-deoxyglucose (TRK-383, Amersham Biosciences, Buckinghamshire, UK). Nonspecific uptake was measured in the presence of cytochalasin B (10 μM) and was subtracted from all values.
Figure 1. (A) CAME and CAEE increase ^3H-deoxyglucose uptake in L6 GLUT4myc myotubes. Cells were treated with 50 μM of either CAME, CAEE, or with vehicle (0.1% DMSO) for 18 h. 100 nM insulin served as the positive control and was applied for the last 15 min of the treatment in vehicle-treated cells. Glucose uptake was performed as described in Materials and Methods section. (B) CAME and CAEE stimulate GLUT4 translocation in L6 GLUT4myc myotubes. Cells were treated as previously described, cell surface GLUT4myc was detected by an enzyme-linked colorimetric assay. By the end of the treatment, L6- GLUT4myc cells were labeled with anti-c-myc antibody as described in Materials and Methods section. Results represent the means ± SEM of three independent experiments, and 3-4 cells were analyzed for each condition per experiment. *Indicates a significant (p ≤ 0.05) difference, **(p < 0.01) from the vehicle control group as assessed by ANOVA. […] L6 myotubes treated with CAME or CAEE (50 μM each), DMSO (0.1%) for 18 h. Insulin (100 nM) and AICAR (2 mM) both applied for 30 min and served as positive controls. Immunoblots were probed with anti phospho-AMPK (Thr 172), anti-GLUT4, anti-GLUT1 and anti-phospho-Akt (Ser 473) antibodies as described in Materials and Methods section. Anti-β-actin antibody was used as a loading control. Representative blots are shown in panel C. Data are expressed as (D) phospho-AMPK/β-actin, (E) GLUT4/β-actin and (F) GLUT1/β-actin and are given as mean ± SEM from 3 experiments. *p < 0.05 indicates a significant difference, **(p < 0.01) from the vehicle control group.

Test [2] relates to 3T3-L1 pre-adipocytes. The test can be described thus: Thymidine incorporation assay (mitotic clonal expansion). It is filed as cell-based. Particulars: Mus musculus, 3T3-L1 cells undergoing mitotic clonal expansion; for IC50: read-out: thymidine incorporation inhibition IC50. How it is done: To assess for the inhibitory activity of CAME and CAEE on and mitotic clonal expansion of 3T3-L1 adipocytes, cells were separately treated with 12.5, 25, 50 and 100 μM of CAME or CAEE for […] in differentiation media and the incorporation of radio-labeled methyl-^3H-thymidine (MP Biomedicals cat #240410, Irvine, CA) into the newly replicated DNA was measured as described elsewhere (Martineau et al. [2010]). The incorporated radioactivity was measured in a liquid scintillation counter (LKB Wallac 1219 Rackbeta; Perkin Elmer Life and Analytical Sciences, Inc., Boston, MA).
Figure 3. (A and B) Anti-adipogenic effect of CAME and CAEE in 3T3-L1 adipocytes. Cells were treated with several concentrations (12.5, 25, 50 and100 μM) of either CAME or CAEE in DMEM containing 10% FBS and the standard adipogenic cocktail (500 μM 3-isobutyl-1-methylxanthine, 500 nM insulin and 10 μM dexamethasone) for 2 days then in DMEM containing 10% FBS and 500 nM insulin starting from days 2-8 of differentiation. This medium was changed every 2 days. (A) On day 8, lipid content was measured by AdipoRed assay. Results represent the means ± SEM of three independent experiments. *Indicates a significant (p ≤ 0.05) difference, **(p < 0.01), ***(p < 0.001) from the vehicle control group. […] Vehicle-treated cells show the presence of lipid droplets. On the other hand, cells treated with the maximum nontoxic concentration (100 μM) of either CAME or CAEE retained the fibroblast-like morphology of pre-adipocytes and were devoid of lipid droplets. (C) CAME and CAEE inhibit pre-adipocyte clonal expansion. Confluent 3T3-L1 pre-adipocytes undergoing clonal expansion in response to differentiation cues were treated with vehicle or 12.5, 25, 50 and 100 μM of either CAME or CAEE for 20 h and incorporation of ^3H-labeled thymidine was measured. Normalized data are presented as mean ± SEM of three independent experiments. **Indicates a significant (p ≤ 0.01) difference, ***(p < 0.001) from the vehicle control group.
For orientation: Uptake of a labelled nucleoside into DNA is a usual measure of proliferation.

The target of test [3] is T1, G6Pase (Rattus norvegicus, UniProt P43428).
T1 sequence (P43428 1-357): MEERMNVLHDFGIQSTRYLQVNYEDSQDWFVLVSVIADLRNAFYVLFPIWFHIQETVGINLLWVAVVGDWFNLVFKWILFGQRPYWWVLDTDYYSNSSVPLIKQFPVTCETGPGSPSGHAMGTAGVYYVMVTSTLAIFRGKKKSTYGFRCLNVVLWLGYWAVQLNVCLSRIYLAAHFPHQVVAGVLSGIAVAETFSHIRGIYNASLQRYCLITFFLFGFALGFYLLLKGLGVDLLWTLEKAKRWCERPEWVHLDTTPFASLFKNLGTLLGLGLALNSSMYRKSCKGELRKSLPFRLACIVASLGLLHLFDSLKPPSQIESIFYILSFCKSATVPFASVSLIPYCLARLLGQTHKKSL
The test can be described thus: Enzymatic activity of G6Pase in H4IIE cells. The test is classed as cell-based. Particulars: at 100 μM, relative to DMSO. The procedure: At 90% confluence, H4-IIE cells were treated with 12.5, 25, 50 and 100 μM of either CAME or CAEE in serum free medium. Vehicle (0.1% DMSO)-treated and 100 nM insulin-treated cells served as the negative and positive control respectively. The activity of G6Pase was assessed by measuring the rate of glucose production in the presence of a non-limiting amount of glucose-6-phosphate (G6P) as described elsewhere (Nachar et al. [2013]). Total glucose production was measured using a commercial glucose assay kit (AutoKit Glucose; Wako Diagnostics, Richmond, VA). Protein content was measured using bicinchoninic acid (BCA) assay (Simpson [2008]) and G6Pase activity was expressed in relation to protein content.
Figure 2. CAME and CAEE inhibit G6Pase by mechanisms involving activation of AMPK. (A) H4IIE hepatocytes were treated for 16 h with several concentrations (12.5, 25, 50 and100 μM) of either CAME or CAEE and G6Pase activity was determined colorimetrically using a commercial glucose assay kit as described under Materials and Methods. Data are expressed relative to vehicle control (0.1% DMSO, 0% inhibition). Insulin (100 nM) applied for similar treatment period served as the positive control. (B and C) Cells were treated with the optimal nontoxic concentration of either CAME, CAEE (50 μM each), or DMSO (0.1%) for 18 h, insulin (100 nM), AICAR (1 mM) applied for 30 min served as the positive controls. (B) The upper blot was probed with anti-phospho-AMPK antibody (Thr 172) and the lower blot was probed with anti-pan AMPK. (C) Blots were probed with antibodies against phospho-Akt (Ser 473) or pan-Akt. Immunoblots are representative of three independent experiments with similar results. (D) Data are expressed as phospho-AMPK/pan-AMPK and are given as mean ± SEM from 3 experiments. *p < 0.05 indicates a significant difference, **(p < 0.01), ***(p < 0.001) from the vehicle control group.

The values that follow come from paper PMC6130489, “Caffeic acid methyl and ethyl esters exert potential antidiabetic effects on glucose and lipid metabolism in cultured murine insulin-sensitive cells through mechanisms implicating activation of AMPK” (Pharmaceutical Biology, 2017).

Take `CCOC(=O)/C=C/c1ccc(O)c(O)c1` [CAEE, caffeic acid ethyl ester]: in test [1], the “glucose uptake, percent of DMSO control” value was determined as 216 ± 19% and the 2-deoxyglucose uptake rate is 21.9 ± 1.0 pmol/min/mg protein. In test [2], the IC50 was determined as 13.1 µM and the inhibition (as a rule, how much of the control response was suppressed) at 100 µM came out at 86.9 ± 3%. The inhibition at 100 µM in test [3] was 62.7 ± 6%.

Take `COC(=O)/C=C/c1ccc(O)c(O)c1` [CAME, CA methyl ester]: in test [1], the “glucose uptake, percent of DMSO control” value was found to be 184 ± 16% and the 2-deoxyglucose uptake rate is 18.7 ± 0.8 pmol/min/mg protein. Also, in test [2], the IC50 was determined as 39.4 µM and the inhibition at 100 µM was 92.7 ± 2.6%. Also, the inhibition at 100 µM in test [3] turned out to be 62 ± 6.9%.
